Experimental data as given in patent US20100184786A1, “Polar Quinazolines” (Wyeth LLC, priority 2008, published 2010).
pEC50, pIC50: −log10 of the molar value.

Key:
ABCA1 gene = test: Gene regulation by LXR (murine): ABCA1 gene regulation, mRNA by real-time PCR; assay type: cell-based; settings: Mus musculus; for Emax: read-out: Agonism ABCA1
human LXRα = biological target: T1, human LXRα (Homo sapiens, UniProt Q13133); test: Ligand-binding test procedure for human LXRα (3H T0901317 tracer, flash plates); settings: competition with 3H T0901317; read-out: hLXRa binding IC50
T1 construct: biotin (biotinylated); made in house; host or cells: E. coli
T1 sequence (Q13133 1-447): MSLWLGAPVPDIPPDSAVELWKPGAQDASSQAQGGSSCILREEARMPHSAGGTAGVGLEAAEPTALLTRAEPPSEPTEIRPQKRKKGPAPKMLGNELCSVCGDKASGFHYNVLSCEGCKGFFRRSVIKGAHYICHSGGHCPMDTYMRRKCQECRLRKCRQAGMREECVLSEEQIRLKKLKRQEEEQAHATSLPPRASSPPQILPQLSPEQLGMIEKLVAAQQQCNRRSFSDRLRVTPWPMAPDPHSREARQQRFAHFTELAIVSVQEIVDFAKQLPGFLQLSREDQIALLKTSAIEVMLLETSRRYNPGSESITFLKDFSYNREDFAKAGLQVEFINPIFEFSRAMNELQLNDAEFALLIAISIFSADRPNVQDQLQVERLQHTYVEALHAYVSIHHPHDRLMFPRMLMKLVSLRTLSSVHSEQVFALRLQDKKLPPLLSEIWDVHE
Protocol: II. Ligand-Binding Test Procedure for Human LXRa.
(§1) • Buffer: 100 mM KCl, 100 mM TRIS (pH 7.4 at +4° C.), 8.6% glycerol, 0.1 mM PMSF*, 2 mM MTG*, 0.2% CHAPS (* not used in wash buffer) • Tracer: ^3H T0901317 • Receptor source: E. coli extract from cells expressing biotinylated hLXRα. Extract was made in a similar buffer as above, but with 50 mM TRIS.
• Washed streptavidin and coated flash plates with wash buffer. • Diluted receptor extract to give Bmax˜4000 cpm and add to the wells. • Wrapped the plates in aluminum foil and stored them at +4° C. over night.
(§2) • Made a dilution series in DMSO of the test ligands. • Made a 5 nM solution of the radioactive tracer in buffer. • Mixed 2500 diluted tracer with 50 of the test ligand from each concentration of the dilution series. • Washed the receptor-coated flash plates. • Added 2000 per well of the ligand/radiolabel mixture to the receptor-coated flash plates. • Wrapped the plates in aluminum foil and incubate at +4° C. over night.
• Aspirated wells, and wash the flashed plates. Sealed the plate. • Measured the remaining radioactivity in the plate.

human LXRβ = biological target: T2, human LXRβ (Homo sapiens, UniProt P55055); test: Ligand-binding test procedure for human LXRβ (3H T0901317 tracer, flash plates); settings: competition with 3H T0901317; read-out: hLXRb binding IC50
T2 construct: biotin (biotinylated); made in house; host or cells: E. coli
T2 sequence (P55055 1-460): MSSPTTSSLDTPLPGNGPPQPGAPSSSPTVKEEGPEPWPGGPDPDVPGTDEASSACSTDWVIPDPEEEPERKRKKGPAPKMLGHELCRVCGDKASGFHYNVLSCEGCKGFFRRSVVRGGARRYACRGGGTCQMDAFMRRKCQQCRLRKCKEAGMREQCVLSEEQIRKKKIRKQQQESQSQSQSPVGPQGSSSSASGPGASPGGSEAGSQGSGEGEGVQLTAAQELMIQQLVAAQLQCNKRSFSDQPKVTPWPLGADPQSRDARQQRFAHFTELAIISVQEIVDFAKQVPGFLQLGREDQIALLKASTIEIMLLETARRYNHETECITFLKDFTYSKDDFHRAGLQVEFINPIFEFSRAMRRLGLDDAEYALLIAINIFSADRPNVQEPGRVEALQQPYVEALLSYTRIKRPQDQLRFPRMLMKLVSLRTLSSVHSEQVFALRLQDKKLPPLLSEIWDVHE
Protocol: I. Ligand-Binding Test Procedure for Human LXRβ.
as §1, with “extracted” for “extract”, “hLXRβ.” for “hLXRα.”
• Washed streptavidin and coated flash plates with wash buffer. • Diluted receptor extract to give Bmax˜4000 cpm and add to the wells. • Wrapped the plates in aluminum foil and stored them at +4° C. overnight.
as §2
• Aspirated wells, and washed the flashed plates. Sealed the plate. • Measured the remaining radioactivity in the plate.

Structure (SMILES) | pEC50 (ABCA1 gene) | Emax (ABCA1 gene) [%] | pIC50 (human LXRα) | pIC50 (human LXRβ)
N#CCCCS(=O)(=O)c1cccc(Oc2ccc(Cl)c(-c3ncnc4c(C(F)(F)F)cccc34)c2)c1 [Example 3, 4-[(3-{4-chloro-3-[8-(trifluoromethyl)quinazolin-4-yl]phenoxy}phenyl)sulfonyl]-butanenitrile] | 5.57 | 71 | 6.29 | 7.46
N#CCCCS(=O)(=O)c1cccc(Oc2ccc(Cl)c(-c3ncnc4c(Cl)cccc34)c2)c1 [Example 4, 4-({3-[4-chloro-3-(8-chloroquinazolin-4-yl)phenoxy]phenyl}sulfonyl)butanenitrile] | 5.36 | 48 | 5.74 | 6.98
CS(=O)(=O)CCCS(=O)(=O)c1cccc(Oc2ccc(Cl)c(-c3ncnc4c(C(F)(F)F)cccc34)c2)c1 [Example 5, 4-[2-chloro-5-(3-{[3-(methylsulfonyl)propyl]sulfonyl}phenoxy)phenyl]-8-(trifluoro-methyl)quinazoline] | 5.49 | 51 | 6.05 | 6.85
NC(=O)CCCS(=O)(=O)c1cccc(Oc2ccc(Cl)c(-c3ncnc4c(Cl)cccc34)c2)c1 [Example 8, 4-({3-[4-chloro-3-(8-chloroquinazolin-4-yl)phenoxy]phenyl}sulfonyl)butanamide] | 5.66 | 74 | 5.88 | 6.90
N#CCCCS(=O)(=O)c1cccc(Oc2ccc(F)c(-c3ncnc4c(Cl)cccc34)c2)c1 [Example 47, 4-({3-[3-(8-chloroquinazolin-4-yl)-4-fluorophenoxy]phenyl}sulfonyl)butanenitrile] |  |  | 5.40 | 6.56
CS(=O)(=O)NCCCS(=O)(=O)c1cccc(Oc2ccc(F)c(-c3ncnc4c(Cl)cccc34)c2)c1 [Example 50, N-[3-({3-[3-(8-chloroquinazolin-4-yl)-4-fluorophenoxy]phenyl}sulfonyl)propyl]methane-sulfonamide] |  |  | 5.20 | 6.33
CS(=O)(=O)NCCCCS(=O)(=O)c1cccc(Oc2ccc(F)c(-c3ncnc4c(Cl)cccc34)c2)c1 [Example 51, N-[4-({3-[3-(8-chloroquinazolin-4-yl)-4-fluorophenoxy]phenyl}sulfonyl)butyl]methane-sulfonamide] |  |  | 5.31 | 6.35
NC(=O)CCCCS(=O)(=O)c1cccc(Oc2ccc(F)c(-c3ncnc4c(Cl)cccc34)c2)c1 [Example 53, 5-({3-[3-(8-chloroquinazolin-4-yl)-4-fluorophenoxy]phenyl}sulfonyl)pentanamide] |  |  | 3.63 | 6.49
NC(=O)CCCS(=O)(=O)c1cccc(Oc2ccc(F)c(-c3ncnc4c(Cl)cccc34)c2)c1 [Example 54, 4-({3-[3-(8-chloroquinazolin-4-yl)-4-fluorophenoxy]phenyl}sulfonyl)butanamide] |  |  | 5.18 | 6.23
Cc1nc(-c2cc(Oc3cccc(S(=O)(=O)CCCC#N)c3)ccc2Cl)c2cccc(C(F)(F)F)c2n1 [Example 59, 4-[(3-{4-chloro-3-[2-methyl-8-(trifluoromethyl)quinazolin-4-yl]phenoxy}phenyl)sulfonyl]-butanenitrile] |  |  | 5.65 | 6.82
Cc1nc(-c2cc(Oc3cccc(S(=O)(=O)CCCNS(C)(=O)=O)c3)ccc2Cl)c2cccc(C(F)(F)F)c2n1 [Example 62, N-{3-[(3-{4-chloro-3-[2-methyl-8-(trifluoromethyl)quinazolin-4-yl]phenoxy}phenyl)sulfonyl]-propyl}methanesulfonamide] |  |  | 5.15 | 6.46
Cc1nc(-c2cc(Oc3cccc(S(=O)(=O)CCCCNS(C)(=O)=O)c3)ccc2Cl)c2cccc(C(F)(F)F)c2n1 [Example 63, N-{4-[(3-{4-chloro-3-[2-methyl-8-(trifluoromethyl)quinazolin-4-yl]phenoxy}phenyl)sulfonyl]-butyl}methanesulfonamide] |  |  | 5.34 | 6.49
